“Also recorded” adds a separate entry of the source. Like-named read-outs stand apart in the source and are kept apart here.
Assays:
[1] = tested on: PDX240 bulk organoids and MOSs; experiment: Cell viability drug response curves, bulk organoids versus MOSs, PDX240; format: cell-based, human; details: cell viabilities after 3 days of treatment
Excerpt: In some embodiments, the MOSs may be formed from cell lines grown as part of a Patient Derived Xenograft (PDX). For example, FIGS. 28A-28D illustrate MOSs formed from cultured PDX240 cells. PDX240 cells are a Patient Derived Xenograft (PDX) tumor cell line (numbered 240 based on patient source) that were human tumors grown in immunodeficient mice (PDX) to form in vivo tumors. The xenograft tissue was extracted dissociated, and used to form MOSs as described above. In this example a single cell was included in each MOS as it was formed. […] With progressive time in culture, at least some of the MOSs show the cells dividing and forming structures.
(§1) Organoids were formed from Patient Derived Xenograft cells (including the PDX240 cells described above and a second PDX cell line, PDX19187) and were compared with MOSs formed using the same cells. The organoids were formed using conventional techniques in which a large mass of MATRIGEL in a well or dish was seeded with cells and cultured until growth was confirmed. MOSs were generated from the traditional organoids.
(§2) Both traditional (“bulk”) organoids and the MOSs were then treated with the same drugs (e.g., Oxaliplatin or SN38) and cell viabilities were measured after 3 days of treatment.

[2] = tested on: traditional cell line; experiment: Traditional (2D) cell line dosed with drug; format: cell-based; details: all dose ranges examined; FIG. 22A
Excerpt: As mentioned above, the MOSs and methods of using them to screen for drug compositions may be used to accurately predict the response of a patient tumor to one or more drug therapies. […] For example, in FIG. 22A-22D, the MOSs, but not a cell line, was able to correlate with patient response.

[3] = tested on: tumor MOSs from patient biopsy; experiment: Drug screen on tumor MOSs generated from a patient biopsy (Example 2); format: cell-based, human; details: FIG. 22B
[4] = tested on: patient tumor; experiment: Actual response of the patient's tumor to drug treatment; format: in vivo, human; details: for patient response to treatment: Example 3 patient, treated with both Oxalipalatin and Irinotecan, after 6 months of treatment
Experimental: (§3) In a similar set of experiments, MOSs were generated from biopsy material (FIG. 23A), and a drug effect screen was performed using the resulting MOSs. […] Thus, the MOSs correlated strongly with patient response to the standard of care drugs. In this case, the patient endured six months of side effects and toxicities that may have been avoided by the predicted response from the MOSs, indicating (within 7-10 days from the biopsy) that the tumor would not respond to these drugs.

[5] = tested on: MOSs from biopsy material; experiment: Drug effect screen on MOSs generated from biopsy material (Example 3); format: cell-based, human; details: FIGS. 23B, 23C
Experimental: as §3

[6] = tested on: PDX19187 bulk organoids and MOSs; format: cell-based, human; details: PDX19187 (also printed PDO19187, PDZ-19187), cell viabilities after 3 days of treatment
Experimental: as §1, §2

[7] = tested on: MOSs derived from multiple myeloma (MM) bone marrow biopsies; experiment: Caspase 3/7 green dye apoptosis assay on multiple myeloma MOSs (Incucyte imaging); format: cell-based, human; details: MM MOSs on day 11, images every 2 hours for 4 days
Experimental: FIGS. 44A and 44B show the efficacy of Lenalidomide and Bortezoid on MOSs derived from multiple myeloma (MM) bone marrow biopsies. MM MOSs (on day 11) were treated with Lenalidomine (5 uM) or Bortezoid (2 nM). Caspase 3/7 green dye was added in the assay to monitor apoptosis. Incucyte images were taken every 2 hours for 4 days. […] If this test were run on, for example, traditional bulk organoids, the results would not be reliable (due to the lack of patient immune cells) leading to uncertainty in the best course of action for patient treatment.

[8] = tested on: MOSs derived from pulmonary tumor biopsy; experiment: Annexin V apoptosis assay on MOSs derived from a pulmonary tumor biopsy; format: cell-based, human
Experimental: (§4) Assays of the MOSs for these pulmonary and renal tumor biopsies were prepared with an Annexin V marker to indicate cellular apoptosis. […] If this test were run on, for example, traditional bulk organoids, the results would not be meaningful (due to the lack of patient immune cells) leading to uncertainty in the best course of action for patient treatment.
(§5) Assays of the MOSs for this pulmonary tumor biopsy were prepared with an Annexin V marker to indicate cellular apoptosis. […] If this test were run on, for example, traditional bulk organoids, the results would be less accurate (because ESK1 would not be able to reach its target) leading to uncertainty in the best course of action for patient treatment.
as §5, with “apoptosis and Cytolight Red dye to indicate tumor infiltrating lymphocytes (TIIs).” for “apoptosis.”, “(due” for “(because ESK1 would not be able”, “the inability of PBMC to penetrate the traditional bulk organoids)” for “reach its target)”
Assays of the MOSs for this pulmonary tumor biopsy were prepared with an Annexin V marker to indicate cellular apoptosis. […] This is an indication that TIIs can penetrate MOS to kill tumor cells. […]

[9] = tested on: MOSs derived from renal tumor biopsy; experiment: Annexin V apoptosis assay on MOSs derived from a renal tumor biopsy; format: cell-based, human
Experimental: as §4

[10] = tested on: mouse liver MOSs; experiment: Toxicity assay using mouse liver MOSs; format: cell-based; details: 10 mM; FIGS. 33A-33B
[11] = tested on: human liver MOSs; experiment: Toxicity assay using human liver MOSs; format: cell-based; details: 10 mM; FIGS. 34A-34B
Excerpt: Similarly, FIGS. 34A-34B also show toxicity assays using human liver MOSs.

Molecule: O=c1[nH]cc(F)c(=O)[nH]1 [5-FU, Fluorouracil]
- drug response curves of bulk organoids compared with MOSs (cell viability) [1]: comparable responses

Molecule: O=C1[O][Pt]2([NH][C@@H]3CCCC[C@H]3[NH]2)[O]C1=O [Oxaliplatin]
- effect of drug on traditional cell line [2]: no effect
- cell survival from the tumor MOSs [3]: significant decreases in cell survival
- tumor response when patient treated with the drug ([4]; Example 2 patient, FIGS. 22C (before) and 22D (post treatment)): responded to treatment
- patient response to treatment [4]: no response
- percent survival of the MOSs in the presence of the drug [5]: no change in the percent survival
- drug response curves of bulk organoids compared with MOSs (cell viability) ([6]; listed as Oxalipalatin): comparable response

Molecule: CCc1c2c(nc3ccc(OC(=O)N4CCC(N5CCCCC5)CC4)cc13)-c1cc3c(c(=O)n1C2)COC(=O)[C@]3(O)CC [Irinotecan]
- patient response to treatment [4]: no response
- percent survival of the MOSs in the presence of the drug [5]: lack of effect

Molecule: CC(C)C[C@H](NC(=O)[C@H](Cc1ccccc1)NC(=O)c1cnccn1)B(O)O [Bortezoid]
- response of MM MOSs in the form of tumor cell apoptosis (Caspase 3/7 green dye) ([7]; 2 nM): does not and not

Molecule: CCc1c2c(nc3ccc(O)cc13)-c1cc3c(c(=O)n1C2)COC(=O)[C@]3(O)CC [SN38, 7-Ethyl-10-hydroxy-camptothecin]
- drug response curves of bulk organoids compared with MOSs (cell viability) [6]: comparable responses
- drug response curves of bulk organoids compared with MOSs (cell viability) [1]: comparable responses

Molecule: Nivolumab
- response of MOSs in the form of tumor cell apoptosis (Annexin V marker) [8]: induces apoptosis; also recorded: good response
- response of MOSs in the form of tumor cell apoptosis (Annexin V marker) [9]: induces apoptosis; also recorded: good response

Molecule: CC(=O)Nc1ccc(O)cc1 [acetaminophen]
- effect on tissue in mouse liver MOSs versus control group [10]: smaller and contains many dead cells
- effect on tissue in human liver MOSs versus control group [11]: significant increase atypical tissue structures (arrows) and debris

Molecule: Nc1cccc2c1CN(C1CCC(=O)NC1=O)C2=O (stereo not drawn) [Lenalidomide]
- response of MM MOSs in the form of tumor cell apoptosis (Caspase 3/7 green dye) ([7]; 5 uM): good response
- response of MM MOSs in the form of tumor cell apoptosis (Caspase 3/7 green dye) ([7]; 5 uM, listed as Lenalidomine): induces apoptosis

Source: patent publication US20240385173A1, “METHODS AND APPARATUS FOR TESTING IMMUNO-ONCOLOGY DRUGS AND BIOLOGICS USING MICROORGANOSPHERES” (Xilis, Inc., priority 2021, published 2024)
